Reference: the supplement of paper PMC10307832

Tests used:
Experiment in all cases: relative viability (nuclei count vs DMSO), 5 days (fraction); higher = more cells survive
[1] = compound: NC(=O)[C@@H](CCC(F)(F)F)N(Cc1ccc(-c2ncon2)cc1F)S(=O)(=O)c1ccc(Cl)cc1 [Avagacestat] + CS(=O)(=O)N1CCN(Cc2cc3nc(-c4cccc5[nH]ncc45)nc(N4CCOCC4)c3s2)CC1 [Pictilisib] (partner 1 µM)
In short: (§1)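 Lung cancer cell lines were seeded in 1536-well plates and dosed by pin tool the next day, with either a single drug or a fixed anchor-drug dose combined with five library-drug doses (not always all listed) spaced in √10 steps. Five days later, one step fixed the cells and stained their nuclei (final 0.05% Triton X-100, 1% formaldehyde, 1 ug/ml Hoechst), and nuclei were counted on 4× images. Relative viability is the nuclei count in treated wells divided by the count in vehicle wells, and each value is the median of duplicate plates.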

[2] = compound: NC(=O)[C@@H](CCC(F)(F)F)N(Cc1ccc(-c2ncon2)cc1F)S(=O)(=O)c1ccc(Cl)cc1 [Avagacestat] + CC1(C)CCC(c2ccc(Cl)cc2)=C(CN2CCN(c3ccc(C(=O)NS(=O)(=O)c4ccc(N[C@H](CCN5CCOCC5)CSc5ccccc5)c(S(=O)(=O)C(F)(F)F)c4)cc3)CC2)C1 [Navitoclax] (partner 0.5 µM)
In short: as §1

[3] = compound: NC(=O)[C@@H](CCC(F)(F)F)N(Cc1ccc(-c2ncon2)cc1F)S(=O)(=O)c1ccc(Cl)cc1 [Avagacestat] + CC(C)C[C@H](NC(=O)[C@H](Cc1ccccc1)NC(=O)c1cnccn1)B(O)O [Bortezomib] (partner 0.002 µM)
In short: as §1

[4] = compound: NC(=O)[C@@H](CCC(F)(F)F)N(Cc1ccc(-c2ncon2)cc1F)S(=O)(=O)c1ccc(Cl)cc1 [Avagacestat] + C[C@]1(O)C[C@@H](c2nc(-c3ccc4ccc(-c5ccccc5)nc4c3)c3c(N)nccn32)C1 [Linsitinib] (partner 1 µM)
In short: as §1

[5] = compound: NC(=O)[C@@H](CCC(F)(F)F)N(Cc1ccc(-c2ncon2)cc1F)S(=O)(=O)c1ccc(Cl)cc1 [Avagacestat] + O=C(c1cc(Cc2n[nH]c(=O)c3ccccc23)ccc1F)N1CCN(C(=O)C2CC2)CC1 [Olaparib] (partner 8 µM)
In short: as §1

[6] = compound: NC(=O)[C@@H](CCC(F)(F)F)N(Cc1ccc(-c2ncon2)cc1F)S(=O)(=O)c1ccc(Cl)cc1 [Avagacestat] + C[C@@H](Oc1cc(-c2cnn(C3CCNCC3)c2)cnc1N)c1c(Cl)ccc(F)c1Cl [Crizotinib] (partner 1 µM)
In short: as §1

[7] = compound: NC(=O)[C@@H](CCC(F)(F)F)N(Cc1ccc(-c2ncon2)cc1F)S(=O)(=O)c1ccc(Cl)cc1 [Avagacestat] + COc1cc2c(Oc3ccc(NC(=O)C4(C(=O)Nc5ccc(F)cc5)CC4)cc3F)ccnc2cc1OCCCN1CCOCC1 [Foretinib] (partner 0.25 µM)
In short: as §1

[8] = compound: NC(=O)[C@@H](CCC(F)(F)F)N(Cc1ccc(-c2ncon2)cc1F)S(=O)(=O)c1ccc(Cl)cc1 [Avagacestat] + Cc1nc(NC(=O)N2CCC[C@H]2C(N)=O)sc1-c1ccnc(C(C)(C)C(F)(F)F)c1 [Alpelisib] (partner 2 µM)
In short: as §1

[9] = compound: NC(=O)[C@@H](CCC(F)(F)F)N(Cc1ccc(-c2ncon2)cc1F)S(=O)(=O)c1ccc(Cl)cc1 [Avagacestat] + CS(=O)(=O)CCNCc1ccc(-c2ccc3ncnc(Nc4ccc(OCc5cccc(F)c5)c(Cl)c4)c3c2)o1 [Lapatinib] (partner 2 µM)
In short: as §1

[10] = compound: NC(=O)[C@@H](CCC(F)(F)F)N(Cc1ccc(-c2ncon2)cc1F)S(=O)(=O)c1ccc(Cl)cc1 [Avagacestat]
In short: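 Hoechst staining, done together with fixation and permeabilisation, marked nuclei for 4× imaging and MetaXpress counting. This followed 5 days without medium change after lung cancer cell lines, kept overnight at 37 °C in 1536-well plates, were pinned with five library-drug doses (not always all listed) spaced by √10 on vehicle-anchored plates. Viability is the ratio of treated-well to vehicle-well nuclei, expressed as a median across plates. Plates passed only at control CV below 25% with at least one doubling.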

[11] = compound: NC(=O)[C@@H](CCC(F)(F)F)N(Cc1ccc(-c2ncon2)cc1F)S(=O)(=O)c1ccc(Cl)cc1 [Avagacestat] + N=C(N)NC(=N)NCCc1ccccc1 [Phenformin] (partner 250 µM)
In short: as §1

[12] = compound: NC(=O)[C@@H](CCC(F)(F)F)N(Cc1ccc(-c2ncon2)cc1F)S(=O)(=O)c1ccc(Cl)cc1 [Avagacestat] + Cc1nc(Nc2ncc(C(=O)Nc3c(C)cccc3Cl)s2)cc(N2CCN(CCO)CC2)n1 [Dasatinib] (partner 0.075 µM)
In short: as §1

[13] = compound: NC(=O)[C@@H](CCC(F)(F)F)N(Cc1ccc(-c2ncon2)cc1F)S(=O)(=O)c1ccc(Cl)cc1 [Avagacestat] + Cc1cc(Nc2cc(N3CCN(C)CC3)nc(Sc3ccc(NC(=O)C4CC4)cc3)n2)n[nH]1 [Tozasertib] (partner 0.1 µM)
In short: as §1

[14] = compound: NC(=O)[C@@H](CCC(F)(F)F)N(Cc1ccc(-c2ncon2)cc1F)S(=O)(=O)c1ccc(Cl)cc1 [Avagacestat] + COc1cccc2cc(-c3nc([C@H]4CC[C@H](C(=O)O)CC4)n4ncnc(N)c34)[nH]c12 [OSI-027] (partner 0.5 µM)
In short: as §1

[15] = compound: NC(=O)[C@@H](CCC(F)(F)F)N(Cc1ccc(-c2ncon2)cc1F)S(=O)(=O)c1ccc(Cl)cc1 [Avagacestat] + CCNC(=O)c1noc(-c2cc(C(C)C)c(O)cc2O)c1-c1ccc(CN2CCOCC2)cc1 [Luminespib] (partner 0.01 µM)
In short: as §1

Q: For EBC-1, which relative viability ([1]; first compound 0.08 µM) is on record?
A: 0.429

Q: And the relative viability ([1]; first compound 0.253 µM)?
A: 0.331

Q: What about the relative viability ([1]; first compound 0.8 µM) of the same cell line?
A: 0.413

Q: And the relative viability ([1]; first compound 2.53 µM)?
A: 0.362

Q: What about the relative viability ([1]; first compound 8 µM) of the same cell line?
A: 0.327

Q: And the relative viability ([2]; first compound 0.08 µM)?
A: 0.342

Q: What about the relative viability ([2]; first compound 0.253 µM) of the same cell line?
A: 0.392

Q: And the relative viability ([2]; first compound 0.8 µM)?
A: 0.334

Q: And the relative viability ([2]; first compound 2.53 µM)?
A: 0.372

Q: And the relative viability ([2]; first compound 8 µM)?
A: 0.296

Q: What about the relative viability ([3]; first compound 0.08 µM) of the same cell line?
A: 0.496

Q: And the relative viability ([3]; first compound 0.253 µM)?
A: 0.521

Q: What about the relative viability ([3]; first compound 0.8 µM) of the same cell line?
A: 0.524

Q: What about the relative viability ([3]; first compound 2.53 µM) of the same cell line?
A: 0.449

Q: And the relative viability ([3]; first compound 8 µM)?
A: 0.381

Q: What about the relative viability ([4]; first compound 0.08 µM) of the same cell line?
A: 0.88

Q: What about the relative viability ([4]; first compound 0.253 µM) of the same cell line?
A: 0.914

Q: And the relative viability ([4]; first compound 0.8 µM)?
A: 1.09

Q: What about the relative viability ([4]; first compound 2.53 µM) of the same cell line?
A: 0.995

Q: And the relative viability ([4]; first compound 8 µM)?
A: 0.649

Q: And the relative viability ([5]; first compound 0.08 µM)?
A: 0.76

Q: And the relative viability ([5]; first compound 0.253 µM)?
A: 0.868

Q: What about the relative viability ([5]; first compound 0.8 µM) of the same cell line?
A: 0.704

Q: What about the relative viability ([5]; first compound 2.53 µM) of the same cell line?
A: 0.799

Q: And the relative viability ([5]; first compound 8 µM)?
A: 0.537

Q: And the relative viability ([6]; first compound 0.08 µM)?
A: 0.213

Q: And the relative viability ([6]; first compound 0.253 µM)?
A: 0.196

Q: What about the relative viability ([6]; first compound 0.8 µM) of the same cell line?
A: 0.2

Q: And the relative viability ([6]; first compound 2.53 µM)?
A: 0.21

Q: What about the relative viability ([6]; first compound 8 µM) of the same cell line?
A: 0.203

Q: What about the relative viability ([7]; first compound 0.08 µM) of the same cell line?
A: 0.114

Q: And the relative viability ([7]; first compound 0.253 µM)?
A: 0.113

Q: What about the relative viability ([7]; first compound 0.8 µM) of the same cell line?
A: 0.123

Q: What about the relative viability ([7]; first compound 2.53 µM) of the same cell line?
A: 0.11

Q: And the relative viability ([7]; first compound 8 µM)?
A: 0.107

Q: And the relative viability ([8]; first compound 0.08 µM)?
A: 0.691

Q: What about the relative viability ([8]; first compound 0.253 µM) of the same cell line?
A: 0.78

Q: What about the relative viability ([8]; first compound 0.8 µM) of the same cell line?
A: 0.743

Q: What about the relative viability ([8]; first compound 2.53 µM) of the same cell line?
A: 0.738

Q: What about the relative viability ([8]; first compound 8 µM) of the same cell line?
A: 0.555

Q: And the relative viability ([9]; first compound 0.08 µM)?
A: 0.212

Q: And the relative viability ([9]; first compound 0.253 µM)?
A: 0.231

Q: What about the relative viability ([9]; first compound 0.8 µM) of the same cell line?
A: 0.246

Q: And the relative viability ([9]; first compound 2.53 µM)?
A: 0.23

Q: And the relative viability ([9]; first compound 8 µM)?
A: 0.202

Q: What about the relative viability ([10]; 0.08 µM) of the same cell line?
A: 1.07

Q: And the relative viability ([10]; 0.253 µM)?
A: 1.11

Q: What about the relative viability ([10]; 0.8 µM) of the same cell line?
A: 1.12

Q: What about the relative viability ([10]; 2.53 µM) of the same cell line?
A: 0.942

Q: And the relative viability ([10]; 8 µM)?
A: 0.8

Q: For NCI-H1623, which relative viability ([11]; first compound 0.08 µM) is on record?
A: 0.576

Q: What about the relative viability ([11]; first compound 0.253 µM) of the same cell line?
A: 0.603

Q: What about the relative viability ([11]; first compound 0.8 µM) of the same cell line?
A: 0.614

Q: And the relative viability ([11]; first compound 2.53 µM)?
A: 0.577

Q: What about the relative viability ([11]; first compound 8 µM) of the same cell line?
A: 0.63

Q: And the relative viability ([12]; first compound 0.08 µM)?
A: 0.525

Q: And the relative viability ([12]; first compound 0.253 µM)?
A: 0.567

Q: And the relative viability ([12]; first compound 0.8 µM)?
A: 0.575

Q: What about the relative viability ([12]; first compound 2.53 µM) of the same cell line?
A: 0.511

Q: And the relative viability ([12]; first compound 8 µM)?
A: 0.577

Q: And the relative viability ([13]; first compound 0.08 µM)?
A: 0.448

Q: What about the relative viability ([13]; first compound 0.253 µM) of the same cell line?
A: 0.446

Q: And the relative viability ([13]; first compound 0.8 µM)?
A: 0.456

Q: And the relative viability ([13]; first compound 2.53 µM)?
A: 0.46

Q: And the relative viability ([13]; first compound 8 µM)?
A: 0.445

Q: And the relative viability ([7]; first compound 0.08 µM)?
A: 0.879

Q: What about the relative viability ([7]; first compound 0.253 µM) of the same cell line?
A: 0.95

Q: What about the relative viability ([7]; first compound 0.8 µM) of the same cell line?
A: 1.08

Q: And the relative viability ([7]; first compound 2.53 µM)?
A: 0.813

Q: What about the relative viability ([7]; first compound 8 µM) of the same cell line?
A: 0.86

Q: And the relative viability ([14]; first compound 0.08 µM)?
A: 0.437

Q: And the relative viability ([14]; first compound 0.253 µM)?
A: 0.454

Q: And the relative viability ([14]; first compound 0.8 µM)?
A: 0.508

Q: What about the relative viability ([14]; first compound 2.53 µM) of the same cell line?
A: 0.424

Q: What about the relative viability ([14]; first compound 8 µM) of the same cell line?
A: 0.47

Q: And the relative viability ([15]; first compound 0.08 µM)?
A: 0.491

Q: What about the relative viability ([15]; first compound 0.253 µM) of the same cell line?
A: 0.484

Q: What about the relative viability ([15]; first compound 0.8 µM) of the same cell line?
A: 0.913

Q: And the relative viability ([15]; first compound 2.53 µM)?
A: 0.609

Q: And the relative viability ([15]; first compound 8 µM)?
A: 0.475

Q: What about the relative viability ([10]; 0.08 µM) of the same cell line?
A: 1.02

Q: And the relative viability ([10]; 0.253 µM)?
A: 0.935

Q: And the relative viability ([10]; 0.8 µM)?
A: 1.1

Q: And the relative viability ([10]; 2.53 µM)?
A: 0.921

Q: And the relative viability ([10]; 8 µM)?
A: 1
